According to patent publication US20250263439A1, “HETERODIMERIC PEPTIDE REAGENTS AND METHODS” (REGENTS OF THE UNIVERSITY OF MICHIGAN, priority 2018, published 2025):
“And” between values parts separate entries of the source, which are not always exact repeats. Equal values may be shown once. “Also recorded” adds a separate entry of the source. Bridge positions count the residues as written; N and C are the ends. Square brackets hold non-standard residues; d marks the D form. Ends that are not written are not given here. Peptide text beside a SMILES is read from it. I, II: the chains in the order shown. * marks the point of attachment. X1 = CC1(C)C(=CC=C2CCCC(C=CC3=[N+](CCCCCC(=O)NCCN4C(=O)CC(*)C4=O)c4ccc(S(=O)(=O)O)cc4C3(C)C)=C2Oc2ccc(S(=O)(=O)O)cc2)N(CCCCS(=O)(=O)[O-])c2ccc(S(=O)(=O)O)cc21; AEEEA = NCCOCCOCCOCC(=O)O

What was measured:
[1] = test system: SKBr3 cells; assay: Confocal cell surface binding of IRDye800 heterodimer to cell panel; type: cell-based, human
Method: Confocal microscopy was performed to validate specific heterodimer binding. […] AF568-labeled anti-EGFR and AF488-labeled anti-HER2 antibodies were used as positive controls to confirm EGFR and HER2 expression by the cell panel. Heterodimer and antibody binding to the surface (arrows) of SKBr3 cells co-localize, and a Pearson's coefficient of ρ=0.58 and 0.65 was measured for EGFR and HER2, respectively, on merged images, FIG. 23A-F.

[2] = test system: human OE33 xenograft tumors; assay: In vivo fluorescence (FL) imaging of OE33 xenograft tumors (IRDye800); design: species or system mice; settings: for Fluorescence T/B ratio, mean (±SD): 2 hours post-injection, n=6 mice
Method: (§1) FL and PA images were collected following systemic administration of QRH*-KSP*-E3-IRDye800 and (GGGAGGG (SEQ ID NO: 28))2-E3-IRDye800 (control) in human OE33 xenograft tumors to characterize pharmacokinetics. […] The mean intensity for either modality regressed to baseline at ˜24 hours post-injection.

[3] = test system: human OE33 xenograft tumors; assay: In vivo photoacoustic (PA) imaging of OE33 xenograft tumors (IRDye800); design: species or system mice; settings: for Photoacoustic T/B ratio, mean: 2 hours post-injection
Method: as §1
Dual-modal images were collected at 2 hours following heterodimer injection to assess imaging depth. […] An ultrasound image confirmed tumor structure, FIG. 20D.

[4] = FL intensity in serum of tumor bearing mice over 48 hours; type: in vivo; settings: mouse, 45 nmol
Method: FIG. 19A) White light and FIG. 19B) FL images (λex=800 nm) are shown of heterodimer distribution in major organs at 2 hours post-injection. FIG. 19C) Mean (±SD) fluorescence intensity for heterodimer and control peptide was shown from n=6 mice each. […] FIG. 19D) FL intensity from serum of tumor bearing mice injected with heterodimer (300 μM, 150 μL PBS, n=6) is shown over 48 hours. Blood prior to heterodimer injection is shown as control.
(§2) Tumor-bearing mice were sacrificed at 2 hours post-injection of heterodimer or control peptide.

[5] = test system: OE33 human xenograft tumor; assay: Immunofluorescence of OE33 xenograft tumor sections ex vivo
Method: Immunofluorescence was performed to validate target expression in sections of OE33 human xenograft tumor ex vivo.

[6] = test system: OE19, OE21, OE33 and SKBr3 cancer cells; assay: Cytotoxicity of IRDye800 heterodimer in panel of human cancer cells; type: cell-based; settings: 48 hours, concentrations up to 500 μg/mL
[7] = test system: human OE33 xenograft tumors; assay: Biodistribution of IRDye800 heterodimer in major organs; design: species or system mice; settings: mouse, in vivo
Method: as §2

[8] = test system: Flo1-HER2 cells; assay: Confocal binding of FITC-labeled candidate peptides to Flo1-HER2 cells; type: cell-based; settings: FITC label, among five leading candidates
Method: A FITC label was attached to each peptide, and binding to Flo1-HER2 and QhTERT cells (control) was imaged using confocal microscopy. […] From the model, this peptide was determined to bind to HER2 domain 3. The peptide was then labeled for deep tissue imaging with a Cy5.5 fluorophore via a GGGSK (SEQ ID NO: 3) linker on the C-terminus, hereafter KSP*-Cy5.5. Cy5.5 was chosen for high quantum yield and photostability. The linker prevents steric hindrance by spatially separating the fluorophore from the peptide. A scrambled sequence PPSNFKR (SEQ ID NO: 4) was developed for use as control by altering the conformationally rigid spacer PNP and moving both hydrophobic and hydrophilic amino acids at the C-terminus. This control peptide also was linked to Cy5.5 via GGGSK (SEQ ID NO: 3), hereafter PPS*-Cy5.5. […] The fluorescence emission peak occurs at 708 nm in the NIR spectrum.

[9] = test system: OE33 cells; assay: Apparent association time constant by flow cytometry with OE33 cells; type: binding, human; settings: for apparent association time constant Ka: flow cytometry, 1 μM, 4° C.; for apparent association time constant (time): value in brackets after Ka
Method: The apparent association time constant (Ka) was measured to assess binding kinetics to OE33 cells. OE33 cells were grown to about 80% confluence in 10 cm dishes, and cells were then detached with PBS-based cell dissociation buffer (Invitrogen). About 10^5 cells were incubated with 1 μM of the heterodimer at 4° C. for different time periods ranging from […]. The cells were centrifuged, washed with cold PBS, and fixed with 4% PFA. Flow cytometry was performed, and the median fluorescence intensity (y) was ratioed with that of OE33 cells without addition of peptide at time points (t) using Flowjo software. The rate constant K was calculated by fitting the data to the first-order kinetics model, y(t)=Imax[1−exp^(−kt)], where Imax=maximum value, using Prism 5.0 software.

[10] = test system: OE33 cells; assay: Apparent dissociation constant by flow cytometry with OE33 cells; type: binding, human; settings: flow cytometry, 4° C.
Method: The apparent dissociation constant (Kd) was measured to assess binding affinity of the heterodimer to OE33 cells. The heterodimer was serially diluted in PBS at concentrations of about 0, 10, 25, 50, 100, and 200 nM with about […] at 4° C. for one hour and washed with cold PBS. The mean fluorescence intensities were measured with flow cytometry (BD LSRII, BD Biosciences). The equilibrium dissociation constant Kd 1/Ka was calculated with a least-squares fit of the data to the nonlinear equation I=(I0+ImaxKa[X])/(I0+Ka[X]). I0 and Imax are the initial and maximum fluorescence intensities, corresponding to no peptide and at saturation, respectively, and [X] represents the concentration of bound peptide. Prism 5.0 software (Graphpad Inc.) was used to calculate Kd and Ka.

[11] = test system: EGFR and ErbB2 mediated signaling; assay: Effect on downstream cell signaling in SKBr3 cells (Western blot); type: cell-based, human
Method: The effect of heterodimer binding on downstream signaling was evaluated in SKBr3 cells. SKBr3 cells were seeded in 6-well flat-bottom plates. […] EGF (#E9644, Sigma) was reconstituted to 1 mg/mL using 10 mM acetic acid, diluted with 0.1% BSA, and added to SKBr3 cells at a concentration of 100 ng/mL. Lapatinib (CDS022971, Sigma) was diluted to 100 nM in DMSO and PBS from 1 mg/mL stock solution, and was added to the cells incubated with heterodimer at concentrations of 1, 5, and 20 μM in separate wells.

[12] = Marshall et al.; cited from earlier work

## CC1(C)C(=CC=C2CCCC(C=CC3=[N+](CCCCCC(=O)NCCN4C(=O)CC(SC[C@H](NC(=O)[C@H](CCCCNC(=O)COCCOCCOCCNC(=O)[C@H](CCC(=O)O)NC(=O)[C@H](CCCNC(=N)N)NC(=O)[C@@H]5CCCN5C(=O)[C@H](CCCCN)NC(=O)[C@H](Cc5c[nH]cn5)NC(=O)[C@H](CCCNC(=N)N)NC(=O)[C@@H](N)CCC(N)=O)NC(=O)COCCOCCOCCNC(=O)[C@H](Cc5ccccc5)NC(=O)[C@H](CCCNC(=N)N)NC(=O)[C@@H]5CCCN5C(=O)[C@H](CC(N)=O)NC(=O)[C@@H]5CCCN5C(=O)[C@H](CO)NC(=O)[C@@H](N)CCCCN)C(N)=O)C4=O)c4ccc(S(=O)(=O)O)cc4C3(C)C)=C2Oc2ccc(S(=O)(=O)O)cc2)N(CCCCS(=O)(=O)[O-])c2ccc(S(=O)(=O)O)cc21 (stereo partly drawn) [QRH*-KSP*-E3-IRDye800] (I: H-KSPNPRF[AEEEA]KC(X1)-NH2 / II: H-QRHKPRE[AEEEA]; amide I:9-II:C)
[1]; confocal microscopy
  binding to surface of SKBr3 cells: Strong fluorescence intensity; also recorded: Strong binding
[1]; paired t-test
  mean fluorescence intensity SKBr3 versus OE21, OE19, and QhTERT cells: significantly greater
[2]
  Fluorescence T/B ratio, mean (±SD): 3.89±0.94
[2]; intravenous
  time of peak FL T/B ratio / intensity post-injection: 2 h
[2]; mouse, in vivo
  mean FL T/B ratio versus control peptide or PBS: significantly greater
[2]; post-injection
  time of regression of FL intensity to baseline / clearance: ~24 h
[3]
  Photoacoustic T/B ratio, mean: 2.44±0.36
[3]; intravenous
  time of peak PA T/B ratio / intensity post-injection: 2 h
[3]; mouse, in vivo
  mean PA T/B ratio versus control peptide or PBS: significantly greater
[3]; post-injection
  time of regression of PA intensity to baseline / clearance: ~24 h
[4]
  half-life: ~3 h
[5]; OE33 xenograft tumor sections, 3 boxes of 20×20 μm2
  T/B ratio: 5.0±0.8
[5]; immunofluorescence of sections
  binding to surface of OE33 xenograft tumor cells: strong binding
[6]
  cytotoxicity: Negligible cytotoxicity; also recorded: No cytotoxicity
[7]
  tumor uptake (biodistribution): high tumor uptake

## KSPNPRF (also: FITC label)
[8]
  mean fluorescence intensity with binding to Flo1-HER2: highest mean fluorescence intensity

## (GGGAGGG)2-E3-IRDye800: control peptide for the IRDye800 heterodimer (also: dimer via E3 linker, IRDye800 label) [reference compound]
[2]
  Fluorescence T/B ratio, mean (±SD): 3.89±0.94
[3]
  Photoacoustic T/B ratio, mean: 1.44±0.21

## QRH*-GGGSK-Cy5.5 (QRHKPREGGGSK-NH2; also: Cy5.5 label on C-terminal Lys side chain) [QRH*-Cy5.5]
[9]
  apparent association time constant Ka: 0.21 min⁻¹
  apparent association time constant (time): 4.7 min and 4.8 min
[10]
  Kd: 98 nM

## CS(=O)(=O)CCNCc1ccc(-c2ccc3ncnc(Nc4ccc(OCc5cccc(F)c5)c(Cl)c4)c3c2)o1 [lapatinib, reference compound]
[11]; 100 nM lapatinib
  expression of phosphorylated EGFR / ErbB2 / AKT / ERK: reduced expression

## IRDye800
[12]
  safety in animals: safe

## EGF (NSDSECPLSHDGYCLHDGVCMYIEALDKYACNCVVGYIGERCQYRDLKWWELR; Epidermal growth factor; UniProt P01133 971-1023, looked up) [an endogenous ligand for EGFR, positive control, reference compound]
[11]; EGF 100 ng/mL, positive control
  p-AKT and p-ERK: strong phosphorylation activity; also recorded: increased expression

## KSP*-GGGSK-Cy5.5 (KSPNPRFGGGSK-NH2; also: Cy5.5 label on C-terminal Lys side chain) [KSP*-Cy5.5]
[9]
  apparent association time constant Ka: 0.35 min⁻¹
  apparent association time constant (time): 2.8 min and 2.9 min
[10]
  Kd: 54 nM
